Test results as given in paper PMC12406256, “Food Additives Inhibit Intestinal Drug Transporters but Have Limited Effect on In Vitro Drug Permeability” (Molecular Pharmaceutics, 2025).
Where two headings read alike, the source gives them in different places.

How the values were obtained:
[1] = system: Caco-2 cells; experiment: in vitro; conditions: Caco-2
Experimental: Caco-2 cells were cultured on 12-well Transwell polycarbonate membrane inserts with a 0.4 μm pore size (Corning Incorporated, Kennebunk, ME) at 37 °C and 5% CO2 for 21–24 days prior to the experiment as described in Hubatsch et al. The culture medium (DMEM, 10% FBS, 1% MEM nonessential amino acids, 100 U/mL penicillin–streptomycin) was changed every second day. Transepithelial electrical resistance (TEER) was measured before and after the permeability assay with a Millicell-ERS electrode (Millipore, Bedford, MA) attached to an epithelial volt ohm meter (EVOM, World Precision Instruments, Sarasota, FL). The permeability assay was performed according to a previously published protocol. […] Sulfasalazine is a substrate of BCRP and OATP2B1. , The DMSO concentration was 0.45–1.5%. Before the experiment, inserts were washed and preincubated in the transport buffer for 20 min shaking at 37 °C. Sulfasalazine and LY permeability was measured in the apical to basolateral direction at five time points (20, 40, 60, 90, and 120 min) and, additionally, in the basolateral to apical direction to calculate the efflux ratio. […] […] LY (250 μM) was added on the donor side of all inserts to measure the integrity of the cell monolayer. Before analysis, samples were centrifuged at 2755g for 30 min, and donor solution and mass balance samples were diluted 1:100. LY fluorescence was measured with a Varioskan LUX microplate reader (Thermo Fisher Scientific) at 430 nm excitation and 538 nm emission. Sulfasalazine was analyzed with ultra-performance liquid chromatography (UPLC) using a Syncronis C18 column (1.7 μm particle size, 50 × 2.1 mm + 0.2 μm Waters online filter) (Thermo Fisher Scientific) coupled with Waters Acquity UPLC interfaced with a PDA detector both controlled by the Waters Empower software version 3. The UPLC was operated in gradient mode at 354 nm. Solvents were 0.015 M phosphate buffer pH 2 (A), acetonitrile (B), 1:1 acetonitrile/methanol (strong needle wash), and 20% acetonitrile (weak needle wash). Column temperature was 30 °C, injection volume was 10 μL, retention time was 1.46 min, and flow rate was 0.5 mL/min. The gradient was 25% B → 70% B (0–3 min), 70% B → 25% B (3.00–3.01 min), and 25% B (3.01–4 min). The data were collected for the first 180 s of each UPLC run.
In the Caco-2 permeability assay, the apparent permeability (P app) of sulfasalazine was calculated using the following equation: Papp=(dQ/dt)(1/A×C0) where dQ/dt is the rate of permeation across the cells (nmol/min), A is the surface area of the filter (1.12 cm^2), and C 0 is the initial concentration in the donor chamber (μM). The efflux ratio of sulfasalazine was calculated by dividing the P app in the basolateral to the apical direction by the P app in the apical to basolateral direction. The TEER for each cell insert was calculated before and after the experiment by multiplying the mean resistance of three measurements by the surface area of the filter (1.12 cm^2). Mass balance was calculated by dividing the […]. All experiments were done in triplicate wells, and the IC50 and Caco-2 permeability assays were repeated three times.

[2] = biological target: T1, OATP2B1 (Homo sapiens, UniProt O94956); conditions: previously characterized inhibitors, ref previous studies, cited from earlier work; for Ki: read-out: K i, OATP2B1
T1 construct: expressed in transfected cells; host or cells: HEK293 cells (ATCC) transduced with recombinant OATP2B1 baculovirus
T1 sequence (O94956 1-709): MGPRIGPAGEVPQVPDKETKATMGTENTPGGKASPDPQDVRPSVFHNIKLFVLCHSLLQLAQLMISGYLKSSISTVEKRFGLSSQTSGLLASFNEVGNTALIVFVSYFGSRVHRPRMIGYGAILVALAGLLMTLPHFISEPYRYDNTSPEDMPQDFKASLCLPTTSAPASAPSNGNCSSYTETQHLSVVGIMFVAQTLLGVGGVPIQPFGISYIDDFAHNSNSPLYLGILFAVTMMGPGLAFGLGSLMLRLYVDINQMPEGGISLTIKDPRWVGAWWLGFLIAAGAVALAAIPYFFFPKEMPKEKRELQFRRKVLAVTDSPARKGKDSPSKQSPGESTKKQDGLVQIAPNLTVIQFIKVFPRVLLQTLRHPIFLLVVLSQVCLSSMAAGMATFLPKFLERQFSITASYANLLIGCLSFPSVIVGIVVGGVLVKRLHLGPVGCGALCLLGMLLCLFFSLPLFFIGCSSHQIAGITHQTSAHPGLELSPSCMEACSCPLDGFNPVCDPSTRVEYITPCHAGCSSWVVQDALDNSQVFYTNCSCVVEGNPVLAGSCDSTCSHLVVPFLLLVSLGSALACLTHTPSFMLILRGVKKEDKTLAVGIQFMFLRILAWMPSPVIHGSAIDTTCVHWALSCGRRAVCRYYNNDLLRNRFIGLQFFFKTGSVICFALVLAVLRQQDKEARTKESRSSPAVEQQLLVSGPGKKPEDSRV

[3] = biological target: T2, MRP2 (Homo sapiens, UniProt Q92887); parameters: method as in previous studies; conditions: previously characterized inhibitors; ref previous studies; read-out: IC50 (95% CI), MRP2; cited from earlier work
T2 construct: made in house; host or cells: Spodoptera frugiperda Sf9 cells, crude membrane vesicles

[4] = system: OATP2B1; parameters: method as in Zou et al.; conditions: 25 mg/kg; P-gp-deficient mice; ref Zou et al.; cited from earlier work
[5] = parameters: method as in not given; conditions: rats; ref not given; cited from earlier work
[6] = biological target: T3, BCRP (Homo sapiens, UniProt Q9UNQ0); conditions: read-out: IC50 (95% CI), BCRP; previously characterized inhibitors; ref previous studies; cited from earlier work
T3 sequence (Q9UNQ0 1-655): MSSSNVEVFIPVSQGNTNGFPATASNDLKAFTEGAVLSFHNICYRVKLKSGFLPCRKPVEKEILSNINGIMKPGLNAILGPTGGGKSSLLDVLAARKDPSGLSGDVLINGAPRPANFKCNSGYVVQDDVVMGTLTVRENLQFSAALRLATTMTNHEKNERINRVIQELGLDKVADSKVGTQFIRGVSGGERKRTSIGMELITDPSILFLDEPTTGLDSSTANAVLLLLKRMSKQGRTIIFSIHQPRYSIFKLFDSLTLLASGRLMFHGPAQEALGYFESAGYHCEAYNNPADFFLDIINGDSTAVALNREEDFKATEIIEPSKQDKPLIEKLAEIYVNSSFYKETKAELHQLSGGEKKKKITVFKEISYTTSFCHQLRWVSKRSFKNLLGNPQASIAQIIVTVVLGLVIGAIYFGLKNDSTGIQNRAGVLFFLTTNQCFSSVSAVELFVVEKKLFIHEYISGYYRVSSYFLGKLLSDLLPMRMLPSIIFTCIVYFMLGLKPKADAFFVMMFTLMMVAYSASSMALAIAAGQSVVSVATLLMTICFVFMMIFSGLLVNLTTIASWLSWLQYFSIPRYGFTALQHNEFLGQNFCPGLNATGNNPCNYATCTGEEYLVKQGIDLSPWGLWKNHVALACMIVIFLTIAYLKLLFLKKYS

[7] = system: Caco-2 cells; parameters: method as in not given; conditions: ref not given; cited from earlier work
[8] = pH 5.5, read-out: IC50, OATP2B1, pH 5.5
[9] = pH 7.4, read-out: IC50, OATP2B1, pH 7.4

T2 sequence (Q92887 whole entry): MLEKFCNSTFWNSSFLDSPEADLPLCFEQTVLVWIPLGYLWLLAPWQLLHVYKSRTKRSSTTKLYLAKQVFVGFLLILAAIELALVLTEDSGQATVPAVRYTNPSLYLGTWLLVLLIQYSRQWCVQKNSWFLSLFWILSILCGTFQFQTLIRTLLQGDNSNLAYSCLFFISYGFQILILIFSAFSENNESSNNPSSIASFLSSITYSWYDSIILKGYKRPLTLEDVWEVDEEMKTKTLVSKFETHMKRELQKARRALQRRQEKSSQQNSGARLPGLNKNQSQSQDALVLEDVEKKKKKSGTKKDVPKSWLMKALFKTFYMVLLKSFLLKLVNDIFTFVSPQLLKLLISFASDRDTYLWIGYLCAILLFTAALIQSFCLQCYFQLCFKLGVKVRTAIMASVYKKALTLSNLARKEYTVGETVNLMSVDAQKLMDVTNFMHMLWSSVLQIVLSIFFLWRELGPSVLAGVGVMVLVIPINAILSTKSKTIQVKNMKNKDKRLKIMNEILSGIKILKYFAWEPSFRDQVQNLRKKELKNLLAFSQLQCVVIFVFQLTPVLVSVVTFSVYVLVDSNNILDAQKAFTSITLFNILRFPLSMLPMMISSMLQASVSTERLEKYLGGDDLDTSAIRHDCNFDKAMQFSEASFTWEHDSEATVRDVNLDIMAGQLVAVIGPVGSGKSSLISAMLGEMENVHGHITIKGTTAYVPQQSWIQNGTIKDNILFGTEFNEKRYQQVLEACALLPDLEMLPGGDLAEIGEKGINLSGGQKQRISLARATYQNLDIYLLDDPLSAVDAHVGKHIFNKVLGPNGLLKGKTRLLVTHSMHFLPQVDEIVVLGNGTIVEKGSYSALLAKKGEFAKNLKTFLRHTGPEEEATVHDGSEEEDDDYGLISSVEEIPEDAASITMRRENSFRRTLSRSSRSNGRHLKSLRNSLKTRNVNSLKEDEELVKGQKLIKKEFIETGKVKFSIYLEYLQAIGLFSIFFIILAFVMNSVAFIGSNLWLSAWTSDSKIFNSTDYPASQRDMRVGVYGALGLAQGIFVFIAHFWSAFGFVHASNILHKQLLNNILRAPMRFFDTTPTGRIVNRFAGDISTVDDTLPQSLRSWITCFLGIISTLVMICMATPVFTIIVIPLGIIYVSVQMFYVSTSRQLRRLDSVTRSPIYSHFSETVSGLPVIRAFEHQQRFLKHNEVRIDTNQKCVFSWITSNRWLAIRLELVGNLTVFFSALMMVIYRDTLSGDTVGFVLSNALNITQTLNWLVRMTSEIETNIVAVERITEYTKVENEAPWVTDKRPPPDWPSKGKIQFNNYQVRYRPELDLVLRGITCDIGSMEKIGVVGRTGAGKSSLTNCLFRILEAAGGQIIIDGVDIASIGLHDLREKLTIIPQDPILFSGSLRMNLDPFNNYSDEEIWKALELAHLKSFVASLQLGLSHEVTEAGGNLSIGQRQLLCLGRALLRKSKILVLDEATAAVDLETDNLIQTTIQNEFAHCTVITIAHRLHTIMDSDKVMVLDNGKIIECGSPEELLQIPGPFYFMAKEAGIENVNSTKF

SMILES: COc1cc(S(=O)(=O)[O-])c(C)cc1N=Nc1c(O)ccc2cc(S(=O)(=O)[O-])ccc12.[Na+].[Na+] [allura red AC]
- effect on sulfasalazine permeability (P app) [1]: None of the selected food additives showed any effect
- IC50 [2, 8]: 1.6 µM
- IC50 [2, 9]: 0.8 µM
- Ki [2]: 2.59 µM
- IC50 [3]: 20 µM
- effect on fexofenadine plasma levels (OATP2B1 inhibition) [4]: decreases fexofenadine plasma levels

SMILES: COc1ccc(CCC(=O)c2c(O)cc(O[C@@H]3O[C@H](CO)[C@@H](O)[C@H](O)[C@H]3O[C@@H]3O[C@@H](C)[C@H](O)[C@@H](O)[C@H]3O)cc2O)cc1O [neohesperidin DC]
- effect on sulfasalazine permeability (P app) [1]: None of the selected food additives showed any effect
- IC50 [2, 8]: 15.5 µM
- IC50 [2, 9]: 48.6 µM
- Ki [2]: 20.1 µM
- oral bioavailability [5]: ~20%
- IC50 [6]: 0.86 µM
- P app in Caco-2 cells [7]: < 6 × 10^–6 cm/s
